“And” between values parts separate entries of the source, which are not always exact repeats. Identical values can stand only once. Toxic doses and inconclusive results are not listed. Rule as the data show it: active = T/C of 150% or more; inactive = T/C below 125%.
Test system: L1210 leukemia ip in BDF1 mice, survival T/C
Test: NCI In Vivo Anticancer Drug Screen. Data for tumor model L1210 Leukemia (intraperitoneal) in B6D2F1 (BDF1) mice
Settings: endpoint: mean survival time, higher = longer survival
Summary of the method: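 Ratio derived from survival: compound-dosed mice over vehicle-dosed mice, all bearing a transplantable tumor.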

[1] = dose: 100.0 mg/kg/injection, schedule: Q04DX003 (ip), vehicle: Klucel (hydroxypropylcellulose) (HPC)
[2] = dose: 200.0 mg/kg/injection, schedule: Q04DX003 (ip), vehicle: Klucel (hydroxypropylcellulose) (HPC)
[3] = dose: 400.0 mg/kg/injection, schedule: Q04DX003 (ip), vehicle: Klucel (hydroxypropylcellulose) (HPC)
[4] = dose: 100.0 mg/kg/injection, schedule: Q04DX003 (ip), vehicle: saline with Tween-80
[5] = dose: 200.0 mg/kg/injection, schedule: Q04DX003 (ip), vehicle: saline with Tween-80
[6] = dose: 400.0 mg/kg/injection, schedule: Q04DX003 (ip), vehicle: saline with Tween-80
[7] = dose: 100.0 mg/kg/injection, schedule: Q04DX002 (ip), vehicle: Klucel (hydroxypropylcellulose) (HPC)
[8] = dose: 200.0 mg/kg/injection, schedule: Q04DX002 (ip), vehicle: Klucel (hydroxypropylcellulose) (HPC)
[9] = dose: 400.0 mg/kg/injection, schedule: Q04DX002 (ip), vehicle: Klucel (hydroxypropylcellulose) (HPC)
[10] = dose: 200.0 mg/kg/injection, schedule: Q01DX001 (ip), vehicle: saline with Tween-80
[11] = dose: 100.0 mg/kg/injection, schedule: Q01DX009 (ip), vehicle: Klucel (hydroxypropylcellulose) (HPC)
[12] = dose: 200.0 mg/kg/injection, schedule: Q01DX009 (ip), vehicle: Klucel (hydroxypropylcellulose) (HPC)
[13] = dose: 400.0 mg/kg/injection, schedule: Q01DX009 (ip), vehicle: Klucel (hydroxypropylcellulose) (HPC)
[14] = dose: 100.0 mg/kg/injection, schedule: Q04DX003 (ip), vehicle: saline
[15] = dose: 200.0 mg/kg/injection, schedule: Q04DX003 (ip), vehicle: saline
[16] = dose: 400.0 mg/kg/injection, schedule: Q04DX003 (ip), vehicle: saline
[17] = dose: 100.0 mg/kg/injection, schedule: Q01DX009 (ip), vehicle: saline with Tween-80
[18] = dose: 200.0 mg/kg/injection, schedule: Q01DX009 (ip), vehicle: saline with Tween-80
[19] = dose: 50.0 mg/kg/injection, schedule: Q01DX009 (ip), vehicle: saline

Measured: T/C

O=C(Nc1ccc(Cl)c(Cl)c1)Nc1c(Oc2ccc(Cl)c(Cl)c2)ccc(Cl)c1S(=O)(=O)O
inactive: dose: 6.25 mg/kg/injection, schedule: Q01DX009 (ip), vehicle: saline 94 % of control | dose: 12.5 mg/kg/injection, schedule: Q01DX009 (ip), vehicle: saline 93 % of control | dose: 25.0 mg/kg/injection, schedule: Q01DX009 (ip), vehicle: saline 96 % of control

COc1ccc(C(=O)/C=C/c2ccc(OC)c(OC)c2)cc1
inactive: [1] 95 % of control | [2] 92 % of control | [3] 100 % of control

O=S1c2ccccc2Sc2ccccc21
inactive: [4] 103 % of control | [5] 97 % of control | [6] 100 % of control

CCOC(=O)C(Cc1c[nH]c2ccccc12)NC(C)=O (stereo not given)
inactive: [7] 106 % of control | [8] 100 % of control | [9] 95 % of control

O=C(O)CCCCOc1ccccc1
inactive: dose: 75.0 mg/kg/injection, schedule: Q04DX003 (ip), vehicle: saline 97 % of control | dose: 150.0 mg/kg/injection, schedule: Q04DX003 (ip), vehicle: saline 103 % of control

COc1ccc(Nc2ccnc3cc(Cl)ccc23)cc1CN(CCCl)CCCl
inactive: dose: 0.78 mg/kg/injection, schedule: Q01DX009 (ip), vehicle: saline 115 % of control | dose: 1.1 mg/kg/injection, schedule: Q01DX Z (ip), vehicle: methylcellulose (MC) 110 % of control | dose: 1.25 mg/kg/injection, schedule: Q01DX009 (ip), vehicle: Klucel (hydroxypropylcellulose) (HPC) 110 % of control | dose: 1.56 mg/kg/injection, schedule: Q01DX009 (ip), vehicle: saline 109 % of control | dose: 1.56 mg/kg/injection, schedule: Q04DX003 (ip), vehicle: saline 108 % of control | dose: 1.6 mg/kg/injection, schedule: Q01DX Z (ip), vehicle: methylcellulose (MC) 106 % of control and 118 % of control | dose: 2.4 mg/kg/injection, schedule: Q01DX Z (ip), vehicle: methylcellulose (MC) 117 % of control and 124 % of control | dose: 2.5 mg/kg/injection, schedule: Q01DX001 (ip), vehicle: Klucel (hydroxypropylcellulose) (HPC) 108 % of control | dose: 2.5 mg/kg/injection, schedule: Q01DX009 (ip), vehicle: Klucel (hydroxypropylcellulose) (HPC) 112 % of control | dose: 2.5 mg/kg/injection, schedule: Q04DX003 (ip), vehicle: Klucel (hydroxypropylcellulose) (HPC) 105 % of control | dose: 3.13 mg/kg/injection, schedule: Q01DX009 (ip), vehicle: saline 86 % of control | dose: 3.13 mg/kg/injection, schedule: Q04DX003 (ip), vehicle: saline 106 % of control | dose: 3.6 mg/kg/injection, schedule: Q01DX Z (ip), vehicle: methylcellulose (MC) 110 % of control and 112 % of control | dose: 5.0 mg/kg/injection, schedule: Q01DX001 (ip), vehicle: Klucel (hydroxypropylcellulose) (HPC) 107 % of control | dose: 5.0 mg/kg/injection, schedule: Q04DX003 (ip), vehicle: Klucel (hydroxypropylcellulose) (HPC) 106 % of control | dose: 10.0 mg/kg/injection, schedule: Q01DX001 (ip), vehicle: Klucel (hydroxypropylcellulose) (HPC) 103 % of control | dose: 10.0 mg/kg/injection, schedule: Q04DX003 (ip), vehicle: Klucel (hydroxypropylcellulose) (HPC) 105 % of control | dose: 50.0 mg/kg/injection, schedule: Q01DX001 (ip), vehicle: carboxymethylcellulose (CMC) 106 % of control

COc1ccccc1NC(=O)N(Cc1ccccc1)C(C)(C)C
inactive: [7] 95 % of control | [8] 100 % of control | [9] 88 % of control

CCCCCCP(=O)(CCCCCC)C1CCCCC1
inactive: dose: 25.0 mg/kg/injection, schedule: Q01DX001 (ip), vehicle: Klucel (hydroxypropylcellulose) (HPC) 94 % of control | dose: 50.0 mg/kg/injection, schedule: Q01DX001 (ip), vehicle: Klucel (hydroxypropylcellulose) (HPC) 88 % of control | dose: 100.0 mg/kg/injection, schedule: Q01DX001 (ip), vehicle: Klucel (hydroxypropylcellulose) (HPC) 102 % of control | [10] 97 % of control

O=C(NCCCCc1ccccc1)c1ccccc1
inactive: [11] 102 % of control | [1] 95 % of control | [12] 109 % of control | [2] 105 % of control | [13] 106 % of control | [3] 95 % of control

COc1c(NC(=O)CC(C)=O)cccc1NC(=O)CC(C)=O
inactive: [11] 108 % of control | [1] 100 % of control | [12] 111 % of control | [2] 103 % of control | [13] 97 % of control | [3] 94 % of control

CC(C)C(=O)NN
inactive: [14] 98 % of control | [15] 101 % of control | [16] 101 % of control

N#CSC/C(Br)=C/Br
inactive: dose: 6.25 mg/kg/injection, schedule: Q01DX009 (ip), vehicle: saline with Tween-80 99 % of control | dose: 12.5 mg/kg/injection, schedule: Q01DX009 (ip), vehicle: saline with Tween-80 96 % of control | dose: 25.0 mg/kg/injection, schedule: Q01DX009 (ip), vehicle: saline with Tween-80 96 % of control

CSc1ccc(NC(=O)Oc2ccccn2)cc1
inactive: dose: 100.0 mg/kg/injection, schedule: Q01DX001 (ip), vehicle: saline with Tween-80 89 % of control | [17] 97 % of control | dose: 100.0 mg/kg/injection, schedule: Q04DX002 (ip), vehicle: saline with Tween-80 93 % of control and 94 % of control | [10] 103 % of control | [18] 90 % of control | dose: 200.0 mg/kg/injection, schedule: Q04DX002 (ip), vehicle: saline with Tween-80 96 % of control and 114 % of control | [5] 88 % of control | dose: 400.0 mg/kg/injection, schedule: Q01DX001 (ip), vehicle: saline with Tween-80 105 % of control | dose: 400.0 mg/kg/injection, schedule: Q04DX002 (ip), vehicle: saline with Tween-80 95 % of control and 96 % of control | [6] 97 % of control

COc1cc(C(=O)NCc2cccs2)cc(OC)c1OC
inactive: [7] 102 % of control | [8] 94 % of control | [9] 94 % of control

NCCCN1CCCN=C1C1=NCCCN1CCCN
inactive: [17] 96 % of control | dose: 100.0 mg/kg/injection, schedule: Q04DX002 (ip), vehicle: saline 100 % of control | [4] 109 % of control | [18] 100 % of control | dose: 200.0 mg/kg/injection, schedule: Q04DX002 (ip), vehicle: saline 100 % of control | [5] 98 % of control | dose: 400.0 mg/kg/injection, schedule: Q01DX009 (ip), vehicle: saline with Tween-80 100 % of control | [6] 95 % of control

CCOC(=O)C(CC(C(=O)OCC)C(=O)OCC)C(=O)OCC
inactive: dose: 75.0 mg/kg/injection, schedule: Q01DX009 (ip), vehicle: saline 98 % of control | [14] 113 % of control | dose: 150.0 mg/kg/injection, schedule: Q01DX009 (ip), vehicle: saline 98 % of control | [15] 97 % of control | dose: 300.0 mg/kg/injection, schedule: Q01DX009 (ip), vehicle: saline 95 % of control | [16] 97 % of control

CCC1OC(=O)CC(O)C(C)C(OC2OC(C)CC(N(C)C)C2O)C(CC=O)CC(C)C(=O)/C=C/C2(C)OC2C1C (stereo not given)
inactive: dose: 75.0 mg/kg/injection, schedule: Q01DX009 (ip), vehicle: saline with Tween-80 93 % of control | dose: 150.0 mg/kg/injection, schedule: Q01DX009 (ip), vehicle: saline with Tween-80 102 % of control

Cc1cnnn1-c1cccc(C(F)(F)F)c1
inactive: dose: 25.0 mg/kg/injection, schedule: Q04DX002 (ip), vehicle: Klucel (hydroxypropylcellulose) (HPC) 92 % of control | dose: 50.0 mg/kg/injection, schedule: Q04DX002 (ip), vehicle: Klucel (hydroxypropylcellulose) (HPC) 92 % of control | [7] 99 % of control and 88 % of control

C=CCNCC1OC(OC)C2OC(C)(C)OC12 (stereo not given)
inactive: [19] 101 % of control | dose: 100.0 mg/kg/injection, schedule: Q01DX009 (ip), vehicle: saline 104 % of control | [14] 109 % of control | dose: 200.0 mg/kg/injection, schedule: Q01DX009 (ip), vehicle: saline 104 % of control | [15] 102 % of control

CC1(C)N=C(N)N=C(N)N1c1ccc(OCCCNC(=O)Nc2cccc(S(=O)(=O)F)c2)c(Cl)c1
inactive: [19] 114 % of control

— PubChem BioAssay AID248 (DTP/NCI, 2004)
